Values joined by “and” are separate entries in the source; they are usually repeats but may differ in a detail not shown here. Identical values can stand only once.
Legend:
EMCV = test: Inactivation of spiked EMCV in pancrelipase by BPL, TCID50 titration on VERO cells (Example 2); format: cell-based, porcine encephalomyocarditis virus (EMCV); settings: 48 h, 20° C.; for Detected EMCV titer: 0*=below detection limit of 10^3 TCID50/g
Description: Four different lots of pancrelipase powders were dissolved in 100 mM Tris, pH=8.3, at a concentration of 100 mg/ml. EMCV virus stock (prepared by Meng X J, Paul P S, Vaughn E M, Zimmerman J J. Development of a radiolabeled nucleic acid probe for the detection of encephalomyocarditis virus of swine. J Vet Diagn Invest. 1993 5:254-8) was mixed with the pancrelipase using slow shaking at room temperature for one day such that the final concentration of pancrelipase was 100 mg/ml. Aliquots were taken from the EMCV-spiked pancrelipase stocks and each was incubated with different concentrations of BPL (available from Sigma-Aldrich, St. Louis, Mo.) (except the control) for 48 hours at room temperature (20° C.). The level of inactivation was measured by the titration of EMCV infectivity on VERO cells using serial dilutions and determining the TCID50 as described in Hierholzer, J. C., Killington, R. A., 1996. Virus isolation and quantitation. In: Mahy, B. W. J., Kangro, H. O. (Eds.), Virology methods manual. Academic Press, London, pp. 25-46.

PPV [1] = test: Inactivation of PPV by 0.8% (v/v) BPL at 4° C. (Example 6); format: cell-based, porcine parvovirus (PPV); settings: 0.8% BPL (4 h) at 4° C.
Description: Samples prepared as in Example 1 were treated for four hours with 0.8% (v/v) BPL at 4° C.

PPV [2] = test: Kinetics of PPV inactivation in PEP samples with 0.4% BPL at 4° C. (Example 7); format: cell-based, porcine parvovirus (PPV); settings: PEP conc. 100 mg/mL
Description: Samples prepared in the same way as described in Example 1 were treated at 4° C. in an aqueous media (i.e. mixture of water and isopropyl alcohol).

PPV [3] = test: Inactivation of PPV by BPL in higher concentration of PEP (200 mg/ml), time course, thiosulfate quench (Example 5); format: cell-based, porcine parvovirus (PPV); settings: 200 mg PEP/ml
Description: The focus of this experiment was to measure the effect of increased PEP concentration on the efficiency of the inactivation procedure and to evaluate lower concentration ranges of BPL.
PPV virus stock (prepared using standard protocols (Arella et al., Physicochemical properties, production, and purification of parvoviruses. 1990, In Tijssen, P. (ed.), CRC handbook of parvoviruses. Boca Raton, Fla.: CRC Press, 11-30)) was diluted with water and this solution (containing 1.42×10^10 FFID50 PPV viruses) was used to suspend the 0.5 gram of PEP powder to yield a final concentration of 200 mg PEP/ml.
Tubes were incubated for one hour at 25° C. before the addition of BPL. BPL was added either directly to the PEP solution (for a final concentration of 0.4 vol. %) or it was first diluted ten and hundred times for final concentrations of 0.04 vol. % and 0.004 vol. %, respectively. After the addition of BPL, the solution was further mixed and incubated at 25° C. for a predetermined period (1, 2, 4, 6, or 8 hours). A sodium thiosulfate solution was freshly prepared on the day of each inactivation experiments. After the period expired for the BPL inactivation, sodium thiosulfate was added to the PEP solution, mixed intensively and incubated at least 6 hours at 4° C. to quench the excess BPL. After this step the infectivity titration experiments as described in U.S. Patent Publication No. 2009/0226414 were performed. All experiments were done using three parallel samples for each time point.

Question: What does the source list for O=C1CCO1 [BPL, Beta-propiolactone]?
Answer: EMCV Titer reduction (EMCV; PEP #1, 0.1% (v/v) BPL): 1.33 × 10^2 TCID50/g; Detected EMCV titer (EMCV; PEP #1, 0.1% (v/v) BPL): 4.22 × 10^5 TCID50/g; EMCV Titer reduction (EMCV; PEP #1, 0.2% (v/v) BPL): >10^5 TCID50/g; Detected EMCV titer (EMCV; PEP #1, 0.2% (v/v) BPL): < 0* TCID50/g; EMCV Titer reduction (EMCV; PEP #1, 0.4% (v/v) BPL): >10^5 TCID50/g; Detected EMCV titer (EMCV; PEP #1, 0.4% (v/v) BPL): < 0* TCID50/g; EMCV Titer reduction (EMCV; PEP #1, 0.8% (v/v) BPL): >10^5 TCID50/g; Detected EMCV titer (EMCV; PEP #1, 0.8% (v/v) BPL): < 0* TCID50/g; EMCV Titer reduction (EMCV; PEP #2, 0.1% (v/v) BPL): 1.78 × 10^2 TCID50/g; Detected EMCV titer (EMCV; PEP #2, 0.1% (v/v) BPL): 3.16 × 10^5 TCID50/g; EMCV Titer reduction (EMCV; PEP #2, 0.2% (v/v) BPL): >10^5 TCID50/g; Detected EMCV titer (EMCV; PEP #2, 0.2% (v/v) BPL): < 0* TCID50/g; EMCV Titer reduction (EMCV; PEP #2, 0.4% (v/v) BPL): >10^5 TCID50/g; Detected EMCV titer (EMCV; PEP #2, 0.4% (v/v) BPL): < 0* TCID50/g; EMCV Titer reduction (EMCV; PEP #2, 0.8% (v/v) BPL): >10^5 TCID50/g; Detected EMCV titer (EMCV; PEP #2, 0.8% (v/v) BPL): < 0* TCID50/g; EMCV Titer reduction (EMCV; PEP #3, 0.1% (v/v) BPL): >10^5 TCID50/g; Detected EMCV titer (EMCV; PEP #3, 0.1% (v/v) BPL): < 0* TCID50/g; EMCV Titer reduction (EMCV; PEP #3, 0.2% (v/v) BPL): >10^5 TCID50/g; Detected EMCV titer (EMCV; PEP #3, 0.2% (v/v) BPL): < 0* TCID50/g; EMCV Titer reduction (EMCV; PEP #3, 0.4% (v/v) BPL): >10^5 TCID50/g; Detected EMCV titer (EMCV; PEP #3, 0.4% (v/v) BPL): < 0* TCID50/g; EMCV Titer reduction (EMCV; PEP #3, 0.8% (v/v) BPL): >10^5 TCID50/g; Detected EMCV titer (EMCV; PEP #3, 0.8% (v/v) BPL): < 0* TCID50/g; EMCV Titer reduction (EMCV; PEP #4, 0.1% (v/v) BPL): 1.33 × 10^3 TCID50/g; Detected EMCV titer (EMCV; PEP #4, 0.1% (v/v) BPL): 7.50 × 10^4 TCID50/g; EMCV Titer reduction (EMCV; PEP #4, 0.2% (v/v) BPL): >10^5 TCID50/g; Detected EMCV titer (EMCV; PEP #4, 0.2% (v/v) BPL): < 0* TCID50/g; EMCV Titer reduction (EMCV; PEP #4, 0.4% (v/v) BPL): >10^5 TCID50/g; Detected EMCV titer (EMCV; PEP #4, 0.4% (v/v) BPL): < 0* TCID50/g; EMCV Titer reduction (EMCV; PEP #4, 0.8% (v/v) BPL): >10^5 TCID50/g; Detected EMCV titer (EMCV; PEP #4, 0.8% (v/v) BPL): < 0* TCID50/g; Log Reduction (PPV [1]; media Mixture water + IPA): 4.9 Log; Sample infectivity after treatment with BPL (PPV [1]; media Mixture water + IPA): 5.2 FFID50/g log; Log Reduction (PPV [1]; media Water): 5.2 Log; Sample infectivity after treatment with BPL (PPV [1]; media Water): 5.0 FFID50/g log; Average PPV titer (log reduction) (PPV [2]; reaction time 15 min): 1.1 log; Average PPV titer (log reduction) (PPV [2]; reaction time 30 min): 1.6 log; Average PPV titer (log reduction) (PPV [2]; reaction time 45 min): 2 log and 2.0 log; Average PPV titer (log reduction) (PPV [2]; reaction time 60 min): 2.2 log; Average PPV titer (log reduction) (PPV [2]; reaction time 720 min): 4.8 log; Detected PPV titer average (PPV [3]; 0.004% BPL, 1 hr at 25° C.): 8.13 × 10^9 FFID50/g; Log10 of inactivation (PPV [3]; 0.004% BPL, 1 hr at 25° C.): 0.4 Log10; Detected PPV titer average (PPV [3]; 0.004% BPL, 2 hr at 25° C.): 5.96 × 10^9 FFID50/g; Log10 of inactivation (PPV [3]; 0.004% BPL, 2 hr at 25° C.): 0.6 Log10; Detected PPV titer average (PPV [3]; 0.004% BPL, 4 hr at 25° C.): 5.86 × 10^9 FFID50/g; Log10 of inactivation (PPV [3]; 0.004% BPL, 4 hr at 25° C.): 0.58 Log10; Detected PPV titer average (PPV [3]; 0.004% BPL, 6 hr at 25° C.): 6.65 × 10^9 FFID50/g; Log10 of inactivation (PPV [3]; 0.004% BPL, 6 hr at 25° C.): 0.53 Log10; Detected PPV titer average (PPV [3]; 0.004% BPL, 8 hr at 25° C.): 6.68 × 10^9 FFID50/g; Log10 of inactivation (PPV [3]; 0.004% BPL, 8 hr at 25° C.): 0.53 Log10; Detected PPV titer average (PPV [3]; 0.04% BPL, 1 hr at 25° C.): 4.01 × 10^9 FFID50/g; Log10 of inactivation (PPV [3]; 0.04% BPL, 1 hr at 25° C.): 0.7 Log10; Detected PPV titer average (PPV [3]; 0.04% BPL, 2 hr at 25° C.): 2.06 × 10^9 FFID50/g; Log10 of inactivation (PPV [3]; 0.04% BPL, 2 hr at 25° C.): 1.0 Log10; Detected PPV titer average (PPV [3]; 0.04% BPL, 4 hr at 25° C.): 1.54 × 10^9 FFID50/g; Log10 of inactivation (PPV [3]; 0.04% BPL, 4 hr at 25° C.): 1.2 Log10; Detected PPV titer average (PPV [3]; 0.04% BPL, 6 hr at 25° C.): 7.66 × 10^8 FFID50/g; Log10 of inactivation (PPV [3]; 0.04% BPL, 6 hr at 25° C.): 1.5 Log10; Detected PPV titer average (PPV [3]; 0.04% BPL, 8 hr at 25° C.): 4.91 × 10^8 FFID50/g; Log10 of inactivation (PPV [3]; 0.04% BPL, 8 hr at 25° C.): 1.7 Log10; Detected PPV titer average (PPV [3]; 0.4% BPL, 1 hr at 25° C.): 3.06 × 10^7 FFID50/g; Log10 of inactivation (PPV [3]; 0.4% BPL, 1 hr at 25° C.): 2.8 Log10; Detected PPV titer average (PPV [3]; 0.4% BPL, 2 hr at 25° C.): 8.69 × 10^6 FFID50/g; Log10 of inactivation (PPV [3]; 0.4% BPL, 2 hr at 25° C.): 3.4 Log10; Detected PPV titer average (PPV [3]; 0.4% BPL, 4 hr at 25° C.): 2.13 × 10^6 FFID50/g; Log10 of inactivation (PPV [3]; 0.4% BPL, 4 hr at 25° C.): 4.0 Log10; Detected PPV titer average (PPV [3]; 0.4% BPL, 6 hr at 25° C.): 3.26 × 10^5 FFID50/g; Log10 of inactivation (PPV [3]; 0.4% BPL, 6 hr at 25° C.): 4.8 Log10; Detected PPV titer average (PPV [3]; 0.4% BPL, 8 hr at 25° C.): 1.69 × 10^5 FFID50/g; Log10 of inactivation (PPV [3]; 0.4% BPL, 8 hr at 25° C.): 5.1 Log10

— US20140017223A1, “Pharmaceutical Compositions Comprising A Pancreatic Enzyme Preparation With Viral Infectivity Reduced Below A Significant Level And Methods Of Preparing And Using The Same” (Aptalis Pharma Canada Inc., priority 2010, published 2014)
